Results published in patent US20210251999A1, “Treatment of Conditions Associated With Decreased Folate in Cerebral Spinal Fluid” (priority 2011, published 2021).

Legend:
Format in all cases: in vivo, human
[1] = Clinical improvement of a patient with cerebrospinal folate deficiency (case report, Example 2); conditions: patient Example 2; after 5-methyltetrahydrofolate treatment (folinic acid 5 mg twice per day)
Experimental: After Example 2's diagnosis, Example 2 was placed on 5-methyltetrahydrofolate in the form of folinic acid (5 mg twice per day). Within approximately four months, Example 2's cerebrospinal folate levels rose from 32 L (preferred range 40-128) to approximately 88 (above the midpoint of the range). […] Thus, reduced folates are critical.

[2] = Cerebrospinal folate level in a patient with cerebrospinal folate deficiency (case report, Example 2); conditions: patient Example 2; folinic acid 5 mg twice per day; within approximately four months; rose from 32 L (preferred range 40-128)
Experimental: Example 1 was tested for cerebrospinal folate deficiency approximately four months after Example 2's testing. […] Studies have shown that the earlier the anemias associated with cerebrospinal folate deficiency are addressed, the better the adversely impacted individual can overcome more long-term effects of the associated folate deficiency.
After Example 2's diagnosis, Example 2 was placed on 5-methyltetrahydrofolate in the form of folinic acid (5 mg twice per day).

[3] = Hematological response (reticulocytes) in a hypothyroid neonate after vitamin B12 supplementation (case report, Example 1); conditions: patient Example 1 (neonate); additional nutritional supplement containing 2 mcg of vitamin B12
From the text: In another example: a patient (later referred to as Example 1, and also a twin of Example 2) suffered from clinical signs of cerebrospinal folate deficiency at birth. Example 1 received infant milk formula that contained vitamin B12. […] It is noted that the multivitamin nutritional supplement was Poly-Vi-Sol. Example 2 received a version of Poly-Vi-Sol that was fortified with iron, but that contained no vitamin B12. It is further noted that neither the version of Poly-Vi-Sol (without the iron fortification) nor the Poly-Vi-Sol (with iron fortification) contained any folate. Thus, the disclosed subject matter addresses the need for Poly-Vi-Sol, and other vitamin supplements that are given to neonates, infants and toddlers, to contain the methods and compositions described herein.
Both Example 1 and Example 2 were treated for iron deficiencies with iron supplements. Example 1 and Example 2 received different nutritional supplementation with respect to vitamin B 12. Although Example 2 did receive the same infant milk formula that Example 1 received, which infant milk formula contained vitamin B 12, Example 2 received less of the infant milk formula than Example 1, and Example 2 received in lieu of the infant milk formula more of the breast milk from the hypothyroid […]. […]

Compound | physical, behavioral and social skills [1] | cerebrospinal folate levels [2] | hematological response: reticulocytes [3]
Nc1nc2c(c(=O)[nH]1)N(C=O)C(CNc1ccc(C(=O)N[C@@H](CCC(=O)O)C(=O)O)cc1)CN2 (stereo partly drawn) [folinic acid, 6(R,S)-5-formyltetrahydrofolate] | showed improvement in physical, behavioral and social skills | approximately 88 | 
vitamin B 12 |  |  | increase in reticulocytes, moving from below normal to normal
